According to patent publication US20260034192A1 (University of Saskatchewan, priority 2022, published 2026):
Square brackets hold non-standard residues; d marks the D form. Peptide text beside a SMILES is read from it. dPhe(4-Cl) = N[C@H](Cc1ccc(Cl)cc1)C(=O)O; d2Nal = N[C@H](Cc1ccc2ccccc2c1)C(=O)O; dCit = NC(=O)NCCC[C@@H](N)C(=O)O; d3Pal = N[C@H](Cc1cccnc1)C(=O)O

Tested on: bovine pituitary cells
Assay: GnRH-induced LH secretion of bovine pituitary cells in vitro (Example 9)
Assay type: cell-based
Settings: 300 μg cetrorelix, 340 μg Degarelix, 300 ug Abarelix, 130 μg Relugolix
Protocol: Methods: The heads of mature, non-pregnant cows (n=4) were collected from a local abattoir and the pituitary glands were dissected within 60 minutes of slaughter. Immediately following the dissection, the pituitaries were submerged into ice-cold collection medium. The pituitaries were washed 3 times in collection media and the neurohypophysis was dissected from the adenohypophysis. Using a scalpel, the adenohypophysis (anterior pituitary) was sliced into 1 mm×1 mm pieces and transferred to a 50 mL falcon tube containing DMEM medium with 0.5% BSA. The tissue pieces were washed by manually agitating the tube for 1 minute. The tissue pieces were allowed to settle to the bottom of the tube, then the supernatant was discarded. The macerated pieces were transferred to a 15 mL falcon tube with the dissociation medium and incubated at 37° C. for 60 minutes. Every 10 minutes the tube was vortexed for 1 minute to ensure the tissue was completely dissociated. The dissociation media was inactivated using DMEM with 10% SFB then manually agitating the tube for 1 minute. The dissociated cells were placed in a 40 μm cell strainer to remove the undigested tissue and placed into two 15 mL falcon tubes. The cells were centrifuged at 200×g for 10 minutes and the supernatant was discarded. The cells were washed three times by resuspending in DMEM solution with red blood cell lysing buffer followed by centrifuged at 200×g for 10 minutes. Then the cells were washed with DMEM solution and centrifuged at 200×g for 10 minutes. Following the last centrifugation, the cells were resuspended in DMEM, and the trypan blue test was used to determine the cell count and assess viability. DMEM with 10% fetal bovine serum (FBS) was treated with 10% charcoal-dextran and passed through a 0.2 μm filter. The cells were then plated in a 24-well tissue culture plate with a concentration of 1×10^6 viable cells per well and incubated at 37° C. for 24 hours. The following day, to starve the cells, the culture media was replaced with DMEM without FBS and left to incubate for another 24 hours.
Treatments: Based on the results from the pilot study, the selected concentration for Cetrorelix (cetrorelix acetate) was 300 μg. The cetrorelix was dissolved in trace levels of DMSO then dissolved in ultrapure water. To standardize the treatments, the nanomole concentration of each GnRH antagonist were matched with the cetrorelix nanomole concentration. The final concentration used for further experiments were: 300 μg for cetrorelix, 340 μg for Degarelix (Degarelix acetate), 300 ug for Abarelix (Abarelix acetate). Both degarelix and abarelix were dissolved ultrapure water. The equivalent Relugolix nanomole concentration was 130 μg which was dissolved in methanol. Treatment cells were preincubated for 60 minutes with either Cetrorelix, Degarelix, Relugolix or Abarelix. Following the preincubation, the cells were incubated for 30 minutes with either 1 nM or 10 nM of GnRH (Gonadorelin, Fertagyl, Merck Animal Health). GnRH doses were based on pituitary study by Paolicchi et al. 1999). The media were collected and centrifuged at 200×g for 10 minutes to remove the cells. Positive (Control) group was only treated with 1 nM and 10 nM of GnRH to determine the maximum LH secretion. LH concentrations in the culture medium was measured by a commercial bovine specific ELISA kit and reported as mIU/ml of medium.

CC(=O)N[C@H](Cc1ccc2ccccc2c1)C(=O)N[C@H](Cc1ccc(Cl)cc1)C(=O)N[C@H](Cc1cccnc1)C(=O)N[C@@H](CO)C(=O)N[C@@H](Cc1ccc(O)cc1)C(=O)N[C@H](CCCNC(N)=O)C(=O)N[C@@H](CC(C)C)C(=O)N[C@@H](CCCNC(=N)N)C(=O)N1CCC[C@H]1C(=O)N[C@H](C)C(N)=O [Cetrorelix, N-acetyl-3-(2-naphthyl)-D-alanyl-4-chloro-D-phenylalanyl-3-(3-pyridyl)-D-alanyl-L-seryl-L-tyrosyl-D-citrullyl-L-leucyl-L-arginyl-L-prolyl-D-alaninamide] (Ac-[d2Nal][dPhe(4-Cl)][d3Pal]SY[dCit]LRP[dA]-NH2)
LH conc in medium (challenged with 1 nM GnRH 30 minutes after 60 minutes preincubation): 0.09 mIU/mL | LH conc in medium (challenged with 10 nM GnRH 30 minutes after 60 minutes preincubation): 0.50 mIU/mL
